Measurements taken from patent publication US20060276390A1, “Combined treatments comprising synthetic peptide copolymers for preventing graft rejection” (YEDA RESEARCH AND DEVELOPMENT CO. LTD., priority 2003, published 2006).
“And” between values parts separate entries of the source, which are not always exact repeats. Equal values may be shown once. “Also recorded” adds a separate entry of the source. Read-outs that look alike come from different tables or passages of the source.

Tests used:
[1] = system: thyroid glands from B10.D2 donors transplanted in the kidney's capsules of BALB/c mice; experiment: Function of transplanted thyroids (I125 absorbance), B10.D2→BALB/c model; type: in vivo, mouse; details: for MFI (mean function index): fold over PBS
Description: (§1) In this transplantation model for HVG, thyroid glands from donor mice were transplanted in the kidney's capsules of recipient mice. One week later the transplanted mice were injected with ^125I, and the radioactivity of each kidney (the recipient or the untransplanted kidney) was measured after 20 hours. Δcpm was calculated by subtracting the ^125I absorbance of the untransplanted kidneys from the ^125I absorbance of the recipient kidneys in the same treatment. The mean function index (MFI) for treatment was calculated by dividing the mean Δcpm for the tested treatment by the mean Δcpm for the PBS treatment. P values were obtained by the ANOVA test. This assay indicates objectively and quantitatively not only the graft survival, but also the function (iodine absorbance) of the transplanted thyroid tissue (Isakov et al., 1979).
(§2) The transplanted mice or rats were treated daily with Copolymer 1 at doses of 0.6-2.5 mg/day for mice and 25 mg/day for rats in PBS solution, starting 7 or 14 days before transplantation. In some cases, the first Cop 1 treatment was injected sc in ICFA as a depot dose.
To test the effect of Copolymer 1 treatment on the function of transplanted thyroids in the B10.D2→BALB/c model, thyroid glands from donors B10.D2 were transplanted in the kidney's capsules of BALB/c mice. After one week the transplanted mice were injected with I^125, and the radioactivity of each kidney was measured 20 hours later. A cpm was calculated by subtracting the I^125 absorbance of the untransplanted kidneys from the I^125 absorbance of the recipient kidneys in the same treatment. The mean function index (MFI) for each treatment was calculated by dividing the mean I^125 absorbance of (transplanted kidney—untransplanted kidney) in the tested treatment by the mean I^125 absorbance of (transplanted kidney—untransplanted kidney) in the PBS treatment, as follows: [formula]

[2] = system: Lewis rats transplanted with an accessory heart from allogeneic disparate BN donor rats; type: in vivo
Source text: Lewis rats were transplanted with an accessory heart from the allogeneic disparate BN donor rats. […] Combination of pretreatment with GA and the respective doses of the immunosuppressants (open bars); Treatment with GA administered from the day of transplantation without pretreatment (striped bar). Cardiac allograft survival was inspected by daily monitoring palpation of the grafts. Grafts were considered rejected when no heart palpitations could be observed.

[3] = system: BALB/c recipient mice transplanted with skin grafts from B10.D2 donors; experiment: Skin graft rejection, B10.D2→BALB/c model; type: in vivo, mouse
Description: (§3) Mice were kept in separate cages and inspected daily.
as §2
To test the effect of Copolymer 1 treatment on skin graft rejection in the B10.D2→BALB/c model, BALB/c recipient mice were transplanted with skin grafts from B10.D2 donors and were treated daily with: PBS ip from day −7, Copolymer 1 (ip+sc) from day −7. Grafts were inspected daily.
Grafts were inspected daily. […] Thyroid glands from B10.D2 donors were transplanted in the kidney's capsules of BALB/c mice.

[4] = system: thyroid glands from C57BL mice transplanted in the kidney capsule of BALB/c mice; experiment: Function of transplanted thyroids (I125 absorbance), C57BL→BALB/c model; type: in vivo, mouse
Description: as §1
BALB/c recipient mice were transplanted in the kidney's capsules with thyroid glands from donor mice in day 0. Grafts were inspected daily. The function (iodine absorbance) of the transplanted thyroid tissue was examined 10 days after transplantation by measuring the iodine absorbance in the kidney.
Thyroid glands from C57BL mice were transplanted in the kidney capsule of BALB/c mice. Nine days after transplantation, mice were injected with 1 μcI^125, and the radioactivity of each kidney was measured 20 hr. later. MFI—denotes the mean function index, calculated as
MFI=mean Δcpm for the tested treatment/mean Δcpm for the PBS tested treatment

[5] = system: BALB/c recipient mice transplanted with skin grafts from C57BL donors; details: for mean survival time (MST) of skin graft / prolongation of skin graft survival: FIG. 3 experiment
Description: BALB/c mice were transplanted with skin grafts from C57BL/6 donors. […] Grafts were considered rejected when no viable donor epidermis remained. At least 7 mice were tested in each group.
Skin transplantation is an established model to measure immune rejection. In this model recipient and donor mice were anesthetized, shaved and cleaned. Circular pieces of skin (1.0 to 1.3 cm in diameter) were cut from dorsal side of the donor mice and dorsally transplanted to recipient animals by the use of histoacryl (Braun, Melsungen, Germany). The grafts were covered with Nobecutane antiseptic spray bandage (Astra, Wedel, Germany). Mice were kept in separate cages and inspected daily. Grafts were considered rejected when no viable donor epidermis remained.
Three murine strain combinations: B10.D2→BALB/c in the H-2^d haplotype, C57BL→C3HSW in the H-2^b haplotype, and B10PL→PL/J in the H-2^u haplotype, were tested across minor histocompatibility barriers, and across major histocompatibility barriers transplantation was tested in C57BL→BALB/c in the H-2^b→H-2^d haplotype. These strain combinations were tested with Copolymer 1 both using skin and thyroid transplantations.
BALB/c recipient mice were transplanted with skin grafts originated in C57BL donors in day 0. GA (100 mg/kg, s.c.) was injected daily starting 2 weeks before transplantation. […] Rejection was considered positive when no viable donor epidermis remained.

[6] = system: C57BL→C3H thyroid graft; experiment: Thyroid rejection (I125 absorbance), C57BL→C3H (H-2b); type: in vivo, mouse; details: Cop 1
Description: as §1, §2

[7] = system: B10PL→PL/J skin graft; experiment: Skin graft rejection, B10PL→PL/J (H-2u); type: in vivo, mouse; details: Cop 1
Description: as §3, §2

[8] = system: B10PL→PL/J thyroid graft; experiment: Thyroid rejection (I125 absorbance), B10PL→PL/J; type: in vivo, mouse; details: Cop 1
Description: as §1, §2

[9] = system: C57BL→C3HSW skin graft; experiment: Skin graft rejection, C57BL→C3HSW (H-2b); type: in vivo, mouse; details: Cop 1
Description: as §3, §2

[10] = FK 506 300 μg/day ip, 7 times from day −2
[11] = Cop 1 600 μg/day ip from day −7
[12] = Cop 1, another experiment (N=5)
[13] = Cop 1 2.5 mg/mouse, Table 7 Part 1
[14] = Cop 1 2.5 mg/mouse, Table 7 Part 2
[15] = Cop 1, C57BL → BALB (H-2b → H-2d), Table 5

## C=CC[C@@H]1/C=C(\C)C[C@H](C)C[C@H](OC)[C@H]2O[C@@](O)(C(=O)C(=O)N3CCCC[C@H]3C(=O)O[C@H](/C(C)=C/[C@@H]3CC[C@@H](O)[C@H](OC)C3)[C@H](C)[C@@H](O)CC1=O)[C@H](C)C[C@@H]2OC [FK 506, tacrolimus]
[1]; [10]
  Mean I^125 Absorption, Transplanted Kidney: 3117 cpm
  Δcpm (transplanted minus untransplanted kidney): 2424 cpm
[1]; FK 506 300 μg/day
  MFI (mean function index): 3.1
[2]; FK 506 1.25 mg/kg alone
  Prolongation: 15.3 days
[2]; FK 506 1.25 mg/kg daily from 6 days before transplantation, alone, 1.25 mg/kg
  MST (Mean Graft Survival Time) of heart graft: 22.5 days and 22.5 ± 0.9 days
[2]; FK 506 2.5 mg/kg alone
  Prolongation: 18.3 days
[2]; FK 506 2.5 mg/kg alone, 2.5 mg/kg
  MST (Mean Graft Survival Time) of heart graft: 25.5 days and 25.5 ± 1.4 days
[2]; FK 506 2.5 mg/kg, 2.5 mg/kg
  toxicity in rats: toxic consequences
[2]; FK506 5 mg/kg
  death of rats after number of daily injections: 6-8 daily injections
[2]; FK 506 5.0 mg/kg, 5 mg/kg
  toxicity in rats: toxic consequences; also recorded: toxic all rats died
[3]; FK506 300 μg/day ip, 7 injections from day −2
  MST (Mean Survival Time) of skin graft: 21.2 days
[3]; FK506 300 μg/day ip, 7 injections from day −2, listed as FK506
  MST (Mean Survival Time) of skin graft: 21.2 ± 4.3 days
[4]; FK506 1.25 mg/kg
  MFI: 3.1
  Mean I^125 Absorbance, Transplanted kidney: 928 ± 165 cpm
  Δcpm: 327 cpm
[4]; FK506 2.5 mg/kg
  MFI: 4.1
  Mean I^125 Absorbance, Transplanted kidney: 772 ± 519 cpm
  Δcpm: 431 cpm
[4]; FK506 5 mg/kg
  MFI: 3.7
  Mean I^125 Absorbance, Transplanted kidney: 1167 ± 636 cpm
  Δcpm: 383 cpm
[5]; FK 506 5 mg/kg
  mean survival time (MST) of skin graft: 9.5 days
  prolongation of skin graft survival: 12%
[5]; FK 506 10 mg/kg
  mean survival time (MST) of skin graft: 13.8 days
  prolongation of skin graft survival: 88%
[5]; FK 506 1.25 mg/kg alone
  Prolongation: 8%
[5]; FK 506 1.25 mg/kg i.m. daily from 6 days before transplantation, alone
  MST (Mean Graft Survival Time): 11.2 days
[5]; FK 506 2.5 mg/kg alone
  MST (Mean Graft Survival Time): 11.8 days
  Prolongation: 13%
[5]; FK 506 5.0 mg/kg alone
  MST (Mean Graft Survival Time): 12.7 days
  Prolongation: 22%
[5]; FK 506 10 mg/kg alone
  MST (Mean Graft Survival Time): 16.0 days
  Prolongation: 54%
[5]; higher dose, FK 506 10 mg/kg, average
  mortality: 20 % of the mice
[5]; mouse, in vivo, 10 mg/kg
  toxic effect on the mice: considerable weight loss and weakness

## glatiramer acetate [Cop 1]
[6]
  MFI (mean function index): 2.3
  Mean I^125 Absorption, Transplanted Kidney: 1643 cpm
  Δcpm: 1362 cpm
[1]; [11]
  Mean I^125 Absorption, Transplanted Kidney: 2901 cpm
  Δcpm (transplanted minus untransplanted kidney): 2451 cpm
[1]; Cop 1 600 ug/day, another experiment (N=5)
  MFI (mean function index): 5.2
[1]; Cop 1 600 μg/day
  MFI (mean function index): 3.2
[1]; [12]
  Mean I^125 Absorption, Transplanted Kidney: 1035 cpm
  Δcpm: 898 cpm
[7]
  MST (Mean Survival Time) of skin graft: 17.6 ± 5.1
[2]; GA 100 mg/kg alone, vs untreated control
  Prolongation: 0.4 days
[2]; GA 100 mg/kg daily from 2 weeks before transplantation, alone
  MST (Mean Graft Survival Time) of heart graft: 7.6 ± 0.5 days
[2]; GA treatment by itself
  effect on heart graft survival: did not prolong graft survival
[8]
  MFI (mean function index): 2.5
  Mean I^125 Absorption, Transplanted Kidney: 2009 cpm
  Δcpm: 1677 cpm
[9]
  MST (Mean Survival Time) of skin graft: 17.7 ± 2.1
[3]; Cop 1 300 μg/day ip+sc daily from day −7
  MST (Mean Survival Time) of skin graft: 20.4 ± 4.5 days
[3]; Cop 1 300 μg/day ip+sc daily from day −7, listed as Copolymer 1
  MST (Mean Survival Time) of skin graft: 20.4 days
[3]; Cop 1 600 μg/day ip+sc daily from day −7
  MST (Mean Survival Time) of skin graft: 20.6 days and 20.6 ± 3.3 days
[3]; Cop 1 600 μg/day ip+sc daily from day −7, listed as Copolymer 1
  MST (Mean Survival Time) of skin graft: 20.6 days
[4]; [13]
  MFI: 3.5
  Mean I^125 Absorbance, Transplanted kidney: 439 ± 31 cpm
  Δcpm: 122 cpm
[4]; [14]
  MFI: 2.4
  Mean I^125 Absorbance, Transplanted kidney: 671 ± 24 cpm
  Δcpm: 247 cpm
[4]; [15]
  MFI (mean function index): 3.0
  Mean I^125 Absorption, Transplanted Kidney: 10759 cpm
  Δcpm: 9835 cpm
[5]; Cop 1, listed as printed C57BL→C3HSW (H-2b → H-2d)
  MST (Mean Survival Time) of skin graft: 18.5 ± 3.3
[5]; GA 100 mg/kg
  prolongation of skin graft survival: 27%
[5]; GA 100 mg/kg, untreated control 8.5 days
  mean survival time (MST) of skin graft: 10.8 days
[5]; GA 100 mg/kg alone, Table 6A
  Prolongation: 10%
[5]; GA 100 mg/kg alone, Table 6B
  MST (Mean Graft Survival Time): 11.5 days
  Prolongation: 11%
[5]; GA 100 mg/kg injected daily
  appearance of mice: looked completely healthy
[5]; GA 100 mg/kg s.c. daily from 2 weeks before transplantation, alone, Table 6A
  MST (Mean Graft Survival Time): 12.3 days
